The values below come from patent publication US8575145B2, “Triazolopyridine compounds as PIM kinase inhibitors” (Array BioPharma Inc., priority 2008, dated 2013).

Like-named read-outs stand apart in the source and are kept apart here.

One may read the IC50 as the concentration that inhibits the measured activity by half.

Assay [1] has as its target GST-tagged recombinant full-length human PIM-2 (Homo sapiens (Human), UniProt Q9P1W9). The assay can be described thus: PIM-2 Enzyme Assay. Conditions: read-out: PIM-2 IC50.
Method: (§1) The amount of radiolabeled product is then measured by liquid scintillation counting. The final buffer conditions were as follows: 20 mM K^+MOPS, pH 7.4, 10 mM MgCl2, 0.005% Tween-20, 1 mM DTT. […] Incubations were carried out for 60 min at 22° C. and quenched with 75 μL of 200 mM H3PO4, filtered through a Whatman P81 plate and washed (1×200 μL and 5×100 μL ) with 200 mM H3PO4. Liquid scintillation cocktail (50 μL ) was then added per well, and the plate was counted for 30 s/well using a TopCount NXT.
(§2) One-μL aliquots of these were then transferred to the assay mixtures above to give a final concentration of DMSO of 2%. […] For each plate, percent of control (POC) values were calculated for each well. IC50's were estimated from the POC's using a standard 4-parameter logistic model. The IC50 is defined as the concentration of inhibitor at which the POC equals 50 for the fitted curve.
In a further assay the target is PIM-1 (Homo sapiens (Human), UniProt P11309). The assay can be described thus: PIM-1 Enzyme Assay. The assay is classed as biochemical. Conditions: 35 μM ATP, 0.25 nM PIM-1. The essentials: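 Radiometric kinase assay in 20 mM K+MOPS pH 7.4, 10 mM MgCl2, 0.005% Tween-20, 1 mM DTT, 2% DMSO final; 60 min at 22° C, stopped with H3PO4, product captured on P81 filter and counted by scintillation. IC50 from 4-parameter logistic fit of percent of control.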
PIM-1, sequence (P11309 whole entry, species assumed): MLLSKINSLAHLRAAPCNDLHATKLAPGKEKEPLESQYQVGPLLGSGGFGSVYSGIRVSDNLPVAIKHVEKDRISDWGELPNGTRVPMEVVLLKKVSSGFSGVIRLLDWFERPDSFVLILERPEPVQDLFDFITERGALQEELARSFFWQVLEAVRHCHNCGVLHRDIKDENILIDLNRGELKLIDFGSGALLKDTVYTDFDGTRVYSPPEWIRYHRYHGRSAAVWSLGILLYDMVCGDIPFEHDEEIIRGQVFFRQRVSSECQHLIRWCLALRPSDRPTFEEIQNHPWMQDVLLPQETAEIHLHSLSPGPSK

Another assay has as its target recombinant rat PIM-3 (Rattus norvegicus (Rat), UniProt O70444). The experiment in a line: PIM-3 Enzyme Assay. The conditions noted are these: read-out: PIM-3 IC50; 30 μM ATP, 0.5 nM PIM-3.

GST-tagged recombinant full-length human PIM-2, sequence (Q9P1W9 whole entry): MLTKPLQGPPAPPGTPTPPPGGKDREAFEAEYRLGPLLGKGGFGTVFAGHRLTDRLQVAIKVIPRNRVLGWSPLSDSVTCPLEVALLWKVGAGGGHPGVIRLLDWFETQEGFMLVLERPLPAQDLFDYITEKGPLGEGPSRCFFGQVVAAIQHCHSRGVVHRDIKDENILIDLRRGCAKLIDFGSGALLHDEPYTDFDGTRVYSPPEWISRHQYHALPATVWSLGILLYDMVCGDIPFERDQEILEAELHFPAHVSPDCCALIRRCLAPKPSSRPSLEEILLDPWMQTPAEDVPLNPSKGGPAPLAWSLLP
Method for recombinant rat PIM-3: as §1, §2

For the compound `c1cc(OC2CCNCC2)c2nc(-c3nnc4ccccn34)ccc2c1` [Example 9, 2-([1,2,4]triazolo[4,3-a]pyridin-3-yl)-8-(piperidin-4-yloxy)quinoline di-trifluoroacetate], the IC50 worked out at 0.57 µM in assay [1], 0.004 µM against PIM-1 and 0.017 µM on recombinant rat PIM-3.

`c1cc(O[C@@H]2CCNC2)c2nc(-c3nnc4ccccn34)ccc2c1` [Example 11, (R)-2-([1,2,4]Triazolo[4,3-a]pyridin-3-yl)-8-(pyrrolidin-3-yloxy)quinoline]: the IC50 in assay [1] (4 μM ATP, […] PIM-2) was 2.47 µM; on PIM-1, 0.023 µM; at recombinant rat PIM-3, 0.033 µM.

Consider `c1cc(O[C@H]2CCNC2)c2nc(-c3nnc4ccccn34)ccc2c1` [Example 12, (S)-2-([1,2,4]Triazolo[4,3-a]pyridin-3-yl)-8-(pyrrolidin-3-yloxy)quinoline], for which the half-maximal inhibitory concentration (IC50) in assay [1] (4 μM ATP, […] PIM-2) worked out at 4.91 µM; on PIM-1 it was 0.03 µM; on recombinant rat PIM-3, 0.077 µM.

In the case of `c1cc(OCC2CCNCC2)c2nc(-c3nnc4ccccn34)ccc2c1` [Example 14, 2-([1,2,4]Triazolo[4,3-a]pyridin-3-yl)-8-(piperidin-4-ylmethoxy)quinoline], the IC50 in assay [1] (4 μM ATP, […] PIM-2) came to 0.562 µM; at PIM-1 it was 0.002 µM; at recombinant rat PIM-3, 0.011 µM.

For the compound `c1cc(OCCC2CCCCN2)c2nc(-c3nnc4ccccn34)ccc2c1` (stereo not drawn) [Example 15, 2-([1,2,4]Triazolo[4,3-a]pyridin-3-yl)-8-(2-(piperidin-2-yl)ethoxy)quinoline], the IC50 in assay [1] (4 μM ATP, […] PIM-2) came to 4.22 µM; against PIM-1, 0.016 µM; at recombinant rat PIM-3, 0.102 µM.

As for `CC(C)(CO)COc1cccc2ccc(-c3nnc4cc(CN)ccn34)nc12` [Example 19, 3-(2-(7-(aminomethyl)-[1,2,4]triazolo[4,3-a]pyridin-3-yl)quinolin-8-yloxy)-2,2-dimethylpropan-1-ol], the IC50 in assay [1] (4 μM ATP, […] PIM-2) came out at 0.017 µM; at PIM-1 it was 0.0007 µM; on recombinant rat PIM-3, 0.002 µM.

As to `CC(C)COc1cccc2ccc(-c3nnc4cc(CN)ccn34)nc12` [Example 20, (3-(8-isobutoxyquinolin-2-yl)-[1,2,4]triazolo[4,3-a]pyridin-7-yl)methanamine], the half-maximal inhibitory concentration (IC50) in assay [1] (4 μM ATP, […] PIM-2) was 0.051 µM; against PIM-1 it was 0.002 µM; on recombinant rat PIM-3, 0.005 µM.

For `OCC1(COc2cccc3ccc(-c4nnc5ccccn45)nc23)CC1` [Example 22, (1-((2-([1,2,4]triazolo[4,3-a]pyridin-3-yl)quinolin-8-yloxy)methyl)cyclopropyl)methanol], the IC50 came to 0.501 µM in assay [1] (4 μM ATP, […] PIM-2); 0.005 µM against PIM-1; 0.025 µM on recombinant rat PIM-3.

As for `c1cc(OC2CC3CCC(C2)N3)c2nc(-c3nnc4ccccn34)ccc2c1` (stereo not drawn) [Example 29, 8-(8-azabicyclo[3.2.1]octan-3-yloxy)-2-([1,2,4]triazolo[4,3-a]pyridin-3-yl)quinoline], the IC50 in assay [1] (4 μM ATP, […] PIM-2) was found to be 0.585 µM; at PIM-1, 0.005 µM; on recombinant rat PIM-3 it was 0.03 µM.

Regarding `CCC(Oc1cccc2ccc(-c3nnc4ccccn34)nc12)[C@@H](CC)CN` (stereo partly drawn) [Example 30, (2S)-3-(2([1,2,4]triazolo[4,3-a]pyridin-3-yl)quinolin-8-yloxy)-2-ethylpentan-1-amine], the IC50 in assay [1] (4 μM ATP, […] PIM-2) was determined as 0.318 µM; against PIM-1, 0.003 µM; on recombinant rat PIM-3, 0.013 µM.

Take `CCC(Oc1cccc2ccc(-c3nnc4ccccn34)nc12)[C@H](CC)CN` (stereo partly drawn) [Example 31, (2R)-3-(2-([1,2,4]triazolo[4,3-a]pyridin-3-yl)quinolin-8-yloxy)-2-ethylpentan-1-amine]: the IC50 in assay [1] (4 μM ATP, […] PIM-2) was found to be 0.413 µM; against PIM-1, 0.004 µM; on recombinant rat PIM-3, 0.019 µM.

Regarding `CC[C@@H](CN)C(C)Oc1cccc2ccc(-c3nnc4ccccn34)nc12` (stereo partly drawn) [Example 32, (2S)-3-(2-([1,2,4]triazolo[4,3-a]pyridin-3-yl)quinolin-8-yloxy)-2-ethylbutan-1-amine], the IC50 in assay [1] (4 μM ATP, […] PIM-2) is 0.399 µM; at PIM-1, 0.004 µM; on recombinant rat PIM-3 it was 0.017 µM.
